Test system: HRV14
Assay: Inhibitory activity against human rhinovirus infection and replication (quantitative real-time PCR)
Format: cell-based
Settings: Human rhinovirus sp., MRC5; 100 nmol/L test compound; MRC-5 cells infected with HRV14 at MOI=0.2; 48 hours; viral load normalized to 18s rRNA; read-out: Percent Inhibition
In short: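 Near-confluent MRC-5 cells were pretreated 30 min with compound at 100 or 1000 nmol/L, then infected with HRV14 (MOI 0.2) in compound-containing medium (2% FBS, 30 mmol/L MgCl2) and cultured 48 h at 35 °C. HRV14 RNA by qRT-PCR, normalized to 18S rRNA; percent inhibition versus untreated infected cells.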

| SMILES | inhibition at 0.1 µM [%] |
| --- | --- |
| COc1ccc(-c2c(C)nc3sc(C(C)(C)O)nn23)cc1S(=O)(=O)C1CC1 [Example 1-37] | 50 to 80 |
| COc1ccc(-c2c(C)nc3sc(C(C)(C)O)nn23)cc1S(=O)(=O)C1CN(C(C)=O)C1 [Example 10-2] | ≤ 50 |
| Cc1nc2sc(C(C)(C)O)nn2c1-c1ccc(C(F)(F)F)c(S(=O)(=O)CC2CC(O)C2)c1 (stereo not drawn) [Example 2-23] | 50 to 80 |
| Cc1nc2sc(C(C)(C)O)nn2c1-c1ccc(OC(F)(F)F)c(S(=O)(=O)N[C@H]2CC[C@@H](O)CC2)c1 [Example 1-17] | > 80 |
| COc1ccc(-c2c(C)nc3sc(C(C)(C)O)nn23)cc1S(=O)(=O)[C@@H]1CC[C@](C)(O)C1 [Example 2-70] | ≤ 50 |
| COc1ccc(-c2c(C)nc3sc(C(C)(C)O)nn23)cc1S(=O)(=O)N[C@H]1CC[C@@](C)(O)CC1 [Example 21-13] | ≤ 50 |
